Calls of active or inactive are those of the source.
Legend:
[1] = molecular target: T1, Oxysterols receptor LXR-beta (Homo sapiens, UniProt P55055); format: functional, cell-based;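 note: Cell-based luminescence dose-response assay of agonist activity at LXR, run as a confirmatory counterscreen to a daf-12 agonist screen; agonist potency from rising luciferase signal of a Gal4-LXR reporter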
T1 sequence (P55055 whole entry): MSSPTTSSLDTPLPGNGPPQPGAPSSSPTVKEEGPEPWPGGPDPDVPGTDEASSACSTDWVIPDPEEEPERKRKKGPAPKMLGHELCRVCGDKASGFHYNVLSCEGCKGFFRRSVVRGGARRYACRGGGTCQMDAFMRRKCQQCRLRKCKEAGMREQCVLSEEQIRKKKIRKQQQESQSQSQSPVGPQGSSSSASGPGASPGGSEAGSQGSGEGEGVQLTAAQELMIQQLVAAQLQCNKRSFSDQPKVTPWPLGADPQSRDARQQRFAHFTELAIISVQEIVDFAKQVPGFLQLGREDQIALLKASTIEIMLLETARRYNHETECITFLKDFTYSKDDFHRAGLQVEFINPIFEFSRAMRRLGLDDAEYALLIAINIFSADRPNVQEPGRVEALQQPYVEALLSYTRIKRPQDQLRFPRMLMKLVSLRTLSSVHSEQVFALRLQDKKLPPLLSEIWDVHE

[2] = molecular target: T1, Oxysterols receptor LXR-beta; experiment: LXR agonists, Gal4 luciferase reporter, dose response, counter-screen for ssDAF-12 agonist project, cell-based, luminescence, HEK293, S. stercoralis campaign (AID 720737); format: functional; settings: read-out: IC50 (the source's name)
[3] = Luminescence-based cell-based high throughput dose response assay to identify activators of the DAF-12 from the parasite S. stercoralis (ssDAF-12).; format: functional
[4] = Luminescence Cell-Based Dose Confirmation HTS to Identify Inhibitors of Platelet Dense Granule Release. [Related pubchem assays: 1663 (Primary HTS), 1678 (Summary of Project)]; format: functional
[5] = cells
[6] = molecular target: Luciferin 4-monooxygenase (Photinus pyralis, UniProt P08659); experiment: firefly luciferase enzyme inhibitors, dose response, biochemical, luminescence (AID 1891)
Luciferin 4-monooxygenase, sequence (P08659 whole entry, the tested form may be a part): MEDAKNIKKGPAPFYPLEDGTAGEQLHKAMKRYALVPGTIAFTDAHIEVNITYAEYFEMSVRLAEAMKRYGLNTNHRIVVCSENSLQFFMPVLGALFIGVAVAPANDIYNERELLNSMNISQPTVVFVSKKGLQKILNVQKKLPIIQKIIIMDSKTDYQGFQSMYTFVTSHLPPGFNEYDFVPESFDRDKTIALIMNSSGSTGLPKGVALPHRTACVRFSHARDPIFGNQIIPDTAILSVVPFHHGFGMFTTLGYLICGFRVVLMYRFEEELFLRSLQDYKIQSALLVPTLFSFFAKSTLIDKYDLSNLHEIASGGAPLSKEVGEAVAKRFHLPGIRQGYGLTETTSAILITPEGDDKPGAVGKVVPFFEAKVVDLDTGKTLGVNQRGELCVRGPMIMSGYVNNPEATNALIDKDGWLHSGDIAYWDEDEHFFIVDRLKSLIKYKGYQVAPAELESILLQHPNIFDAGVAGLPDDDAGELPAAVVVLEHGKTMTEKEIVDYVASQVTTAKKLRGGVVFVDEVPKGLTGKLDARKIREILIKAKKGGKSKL

[7] = molecular target: Disintegrin and metalloproteinase domain-containing protein 17 (Homo sapiens, UniProt P78536); experiment: exosite inhibitors of ADAM17, dose response, biochemical (AID 743260)
Disintegrin and metalloproteinase domain-containing protein 17, sequence (P78536 whole entry, the tested form may be a part): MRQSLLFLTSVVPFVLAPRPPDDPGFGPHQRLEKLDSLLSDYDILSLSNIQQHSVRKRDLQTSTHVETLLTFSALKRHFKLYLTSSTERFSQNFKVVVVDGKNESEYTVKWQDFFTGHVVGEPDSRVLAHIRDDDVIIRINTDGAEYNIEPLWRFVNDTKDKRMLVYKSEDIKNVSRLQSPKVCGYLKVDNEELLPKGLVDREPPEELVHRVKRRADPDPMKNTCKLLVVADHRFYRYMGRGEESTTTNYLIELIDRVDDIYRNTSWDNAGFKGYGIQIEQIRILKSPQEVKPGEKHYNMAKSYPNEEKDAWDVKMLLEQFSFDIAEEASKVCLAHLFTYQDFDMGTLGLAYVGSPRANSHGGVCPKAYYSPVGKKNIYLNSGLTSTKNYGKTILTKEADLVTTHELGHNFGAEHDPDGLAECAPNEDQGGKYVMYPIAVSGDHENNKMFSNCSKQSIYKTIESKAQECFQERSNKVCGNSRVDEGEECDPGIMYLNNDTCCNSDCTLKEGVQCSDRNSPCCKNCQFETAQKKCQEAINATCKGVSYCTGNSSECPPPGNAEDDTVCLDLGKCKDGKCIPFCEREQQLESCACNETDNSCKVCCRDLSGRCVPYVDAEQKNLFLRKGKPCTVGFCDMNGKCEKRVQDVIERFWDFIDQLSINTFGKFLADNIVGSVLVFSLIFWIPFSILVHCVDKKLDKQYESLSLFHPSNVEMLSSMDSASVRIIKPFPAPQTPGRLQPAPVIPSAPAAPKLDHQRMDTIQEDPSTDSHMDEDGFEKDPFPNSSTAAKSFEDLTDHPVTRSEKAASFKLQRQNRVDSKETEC

[8] = ADAM10 protease inhibitors, dose response, selectivity assay for ADAM17 exosite inhibitor project, biochemical, FRET peptide substrate, recombinant human ADAM10 (AID 743259);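 note: ADAM10 enzyme cleaving a FRET peptide substrate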
[9] = molecular target: Caspase-6 (Homo sapiens, UniProt P55212); experiment: human caspase-6 inhibitors, dose response, biochemical, VEID-R110 fluorescence, cherry-pick (AID 720632)
Caspase-6, sequence (P55212 24-179 limits assumed): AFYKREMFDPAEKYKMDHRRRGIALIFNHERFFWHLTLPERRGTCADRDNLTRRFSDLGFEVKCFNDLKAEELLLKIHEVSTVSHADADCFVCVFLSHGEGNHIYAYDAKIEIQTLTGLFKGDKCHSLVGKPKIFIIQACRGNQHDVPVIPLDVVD
Caspase-6, sequence (P55212 194-293 limits assumed): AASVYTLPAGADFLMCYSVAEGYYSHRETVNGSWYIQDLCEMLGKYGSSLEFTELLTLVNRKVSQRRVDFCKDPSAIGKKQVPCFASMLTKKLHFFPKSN

[10] = ARNT/TACC3 interaction disruptors, potency, confirmation, biochemical, AlphaScreen, cherry-picked samples (AID 651703); format: functional, Homo sapiens;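 note: His-tagged ARNT PAS-B domain paired with GST-TACC3 E629A dimer coactivator fragment; potency of inhibitors that break up the complex and lower AlphaScreen signal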
[11] = A549 cell cytotoxicity, dose response, cytotoxicity control, plate reader, cherry-pick, antagonist series (AID 743412); format: functional, cell-based
[12] = HepG2 cell cytotoxicity, dose response, cytotoxicity control, plate reader, cherry-pick, antagonist series (AID 743416); format: functional, cell-based
[13] = MC4R antagonists, dose response, counter-screen for LGR2 antagonist project, cell-based, plate reader, cherry pick (AID 743444); format: functional;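 note: transfected HEK 293 cells stimulated with alpha-MSH peptide; potency of inhibitors of the alpha-MSH evoked signal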
[14] = LGR2 antagonists, dose response, cell-based, HEK293, CRE-luciferase reporter, cherry pick, set 2 (AID 743343); format: functional;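 note: transfected cells were stimulated with diluted bursicon conditioned medium after compound addition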
[15] = molecular target: T2, Protein RecA (Mycobacterium tuberculosis, UniProt P9WHJ3); experiment: Fluorescence Cell-Free Homogeneous Dose Retest to Identify Inhibitors of RecA-Intein Splicing Activity. [Related pubchem assays (depositor defined):AID2097, AID2223, AID489010, AID492950]; format: functional
T2 sequence (P9WHJ3 whole entry): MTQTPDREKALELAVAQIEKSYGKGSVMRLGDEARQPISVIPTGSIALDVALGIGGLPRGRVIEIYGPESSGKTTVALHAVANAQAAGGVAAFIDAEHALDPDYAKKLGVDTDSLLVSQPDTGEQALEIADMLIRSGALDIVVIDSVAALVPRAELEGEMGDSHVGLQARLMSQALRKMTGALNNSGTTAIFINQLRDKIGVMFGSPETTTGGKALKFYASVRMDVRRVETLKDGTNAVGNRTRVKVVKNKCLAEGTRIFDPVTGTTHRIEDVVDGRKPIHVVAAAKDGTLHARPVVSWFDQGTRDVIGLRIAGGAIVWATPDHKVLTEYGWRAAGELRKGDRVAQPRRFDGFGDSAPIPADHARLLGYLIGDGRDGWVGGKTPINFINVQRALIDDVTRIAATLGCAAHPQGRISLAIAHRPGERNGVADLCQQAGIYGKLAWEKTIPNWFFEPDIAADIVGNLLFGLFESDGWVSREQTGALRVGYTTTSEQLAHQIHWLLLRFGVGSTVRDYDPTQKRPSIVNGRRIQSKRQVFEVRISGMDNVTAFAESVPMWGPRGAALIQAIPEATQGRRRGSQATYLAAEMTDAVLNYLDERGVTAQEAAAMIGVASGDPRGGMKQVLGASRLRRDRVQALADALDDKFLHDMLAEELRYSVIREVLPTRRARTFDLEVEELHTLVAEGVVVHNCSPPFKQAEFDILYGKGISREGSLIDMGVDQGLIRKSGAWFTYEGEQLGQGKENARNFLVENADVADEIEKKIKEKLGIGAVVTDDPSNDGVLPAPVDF

[16] = Luminescence Cell-Based Dose Response HTS to Identify Activators of Luciferase Translation or Activity in H4 […] Cells. [Related pubchem assays: 1829 (Project Summary), 1814 (Primary HTS)]; format: functional
[17] = Luminescence Cell-Based Dose Confirmation HTS to Identify Activators of 5'UTR Stem-Loop Driven Alpha-Synuclein mRNA Translation in H4 Neuroglioblastoma Cells. [Related pubchem assays: 1829 (Project Summary), 1814 (Primary HTS)]; format: functional
[18] = inhibitors of PGC1a acetylation in cells, dose response, cell-based, cherry-picked samples (AID 720514); format: functional;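 note: potency may reflect raised or lowered acetylation signal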
[19] = test system: H4; experiment: Luminescence Cell-Based Dose Response HTS to Identify Activators of 5'UTR Stem-Loop Driven Prion Protein mRNA Translation in H4 Neuroglioblastoma Cells. [Related pubchem assays: 1829 (Project Summary), 1814 (Primary HTS)]; format: functional; settings: Homo sapiens
[20] = inhibitors of intracellular T. cruzi replication, confirmation, NIH3T3 host cells, beta-gal luminescence (AID 2044); format: functional, cell-based;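 note: intracellular parasites grown in NIH/3T3 mouse fibroblasts as host cells; luminescent beta-galactosidase reporter signal from transgenic T. cruzi replicating inside host cells; inhibitors lower the luminescence signal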
[21] = C. albicans growth with fluconazole, confirmation, fluorescence, retest (AID 2467); format: functional, cell-based
[22] = NIH-3T3 fibroblast cytotoxicity, dose response, cytotoxicity control, cell-based, fluorescence, Alamar Blue, secondary assay (AID 2327); format: functional;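 note: NIH-3T3 mouse fibroblasts cultured with fluconazole at 8 µg/mL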
[23] = cytotoxicity toward NIH3T3 fibroblasts, dose response, counter-screen, cell-based, ATP luminescence, mouse fibroblasts (AID 2010); format: functional;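 note: cells exposed to compound for about 90 hours before reading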
[24] = molecular target: T3, Replicative DNA helicase DnaB (Mycobacterium tuberculosis, UniProt P9WMR3); experiment: DnaB intein splicing inhibitors, dose response, biochemical, cell-free fluorescence (AID 449749); format: functional
T3 sequence (P9WMR3 whole entry): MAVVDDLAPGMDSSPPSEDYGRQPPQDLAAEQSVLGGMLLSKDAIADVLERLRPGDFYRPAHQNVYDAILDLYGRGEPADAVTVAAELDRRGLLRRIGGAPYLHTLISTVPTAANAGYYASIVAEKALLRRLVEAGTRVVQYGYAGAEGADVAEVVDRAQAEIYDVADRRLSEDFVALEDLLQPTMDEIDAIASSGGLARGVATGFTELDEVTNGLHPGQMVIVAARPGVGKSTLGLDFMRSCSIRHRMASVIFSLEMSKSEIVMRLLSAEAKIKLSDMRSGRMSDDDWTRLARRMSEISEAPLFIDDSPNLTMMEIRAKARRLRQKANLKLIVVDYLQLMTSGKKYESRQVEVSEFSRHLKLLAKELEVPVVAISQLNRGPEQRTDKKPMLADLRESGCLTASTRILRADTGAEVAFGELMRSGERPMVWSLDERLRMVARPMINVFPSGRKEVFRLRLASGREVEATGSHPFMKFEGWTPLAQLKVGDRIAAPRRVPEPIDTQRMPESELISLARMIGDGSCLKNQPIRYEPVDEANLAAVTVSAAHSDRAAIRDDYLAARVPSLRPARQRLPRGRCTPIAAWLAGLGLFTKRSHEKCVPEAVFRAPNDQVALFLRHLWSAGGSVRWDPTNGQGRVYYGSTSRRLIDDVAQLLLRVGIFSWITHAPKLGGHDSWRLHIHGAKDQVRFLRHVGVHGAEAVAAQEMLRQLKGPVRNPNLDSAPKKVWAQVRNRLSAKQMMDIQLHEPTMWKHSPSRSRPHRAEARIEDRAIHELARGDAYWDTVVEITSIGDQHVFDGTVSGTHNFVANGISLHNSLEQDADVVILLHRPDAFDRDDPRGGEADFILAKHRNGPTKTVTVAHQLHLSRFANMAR

## Oc1c(N=Nc2ccccc2)sc2ccccc12
[1]
  EC50: > 67.5 µM (inactive)
[2]
  EC50: > 67.5 µM (inactive)
[3]
  IC50: > 67.5 µM (inactive)
[4]
  EC50: 15 µM (active)
[5]
  EC50: > 67.5 µM (inactive)
[6]
  EC50: 1.26 µM (active)

## Cc1ccccc1-c1nnn(Cc2ccc(F)cc2Cl)n1
[7]
  IC50: > 69.5 µM (inactive)
[8]
  IC50: > 69.5 µM (inactive)

## CCOC(=O)C1CCN(C(=O)COC(=O)c2ccc([N+](=O)[O-])o2)CC1
[9]
  AC50: 18.5 µM (active)
[10]
  AC50: 88.2 µM (active)

## Cc1ccc(Nc2nc(-c3ccccc3)cs2)nc1
[11]
  AC50: 37.4 µM (active)
[1]
  EC50: > 67.5 µM (inactive)
[12]
  AC50: > 52 µM (inactive)
[13]
  AC50: 13.3 µM (active)
[5]
  EC50: > 67.5 µM (inactive)
[14]
  AC50: 8.03 µM (active)

## O=C(OCn1ncc(Cl)c(Cl)c1=O)c1ccc(C(F)(F)F)cc1
[15]
  EC50: 0.308 µM (active)
[16]
  EC50: > 120 µM (not active)
[17]
  EC50: > 120 µM (not active)
[18]
  AC50: 20.6 µM (active)
[19]
  EC50: > 120 µM (not active)
[20]
  EC50: 1.92 µM (active)
[21]
  EC50: > 38 µM (not active)
[22]
  EC50: 4.13 µM (inconclusive)
[23]
  EC50: 1.89 µM (active)
[24]
  AC50: 1.23 µM (active)
